# System: HCV genotype-1a variant with glutamine 30 changed to glutamate in the NS5A protein
# Format: cell-based
# Conditions: test compound titrated with BMS-790052 fixed at 200 nM; genotype 1a Q30E replicon
# Outline: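 Synergy was assessed by combining several fixed amounts of an NS5A-targeting compound with a titration of the second compound of interest.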
row,SMILES,Fold-Synergistic 1a (Q30E)
1,C[C@@H]1CN(C(=O)C(=O)N[C@H](c2nc(-c3ccc(-c4ccc(-c5c[nH]c([C@@H](NC(=O)C(=O)N6C[C@@H](C)O[C@@H](C)C6)C(C)(C)C)n5)cc4)cc3)c[nH]2)C(C)(C)C)C[C@H](C)O1 [Compound W-45],>100 fold
2,CC(C)[C@H](NC(=O)c1cccc(C(F)(F)F)c1)c1ncc(-c2ccc(-c3ccc(-c4cnc([C@@H](NC(=O)c5cccc(C(F)(F)F)c5)C(C)C)[nH]4)cc3)cc2)[nH]1 [Compound S-79],>100 fold
3,Cc1cc(CC(=O)N[C@H](c2ncc(-c3ccc(-c4ccc(-c5cnc([C@@H](NC(=O)Cc6cc(C)no6)C(C)C)[nH]5)cc4)cc3)[nH]2)C(C)C)on1 [Compound P-76],>10 fold
4,CC(C)[C@H](NC(=O)C(C)(C)C)c1nc(-c2ccc(-c3ccc(-c4c[nH]c([C@@H](NC(=O)C(C)(C)C)C(C)C)n4)c(F)c3)cc2)c[nH]1.O=C(O)C(F)(F)F [Compound N-89],>100 fold
5,CC(C)(C)[C@H](Nc1ncc(Br)cn1)c1nc(-c2ccc(-c3ccc(-c4c[nH]c([C@@H](Nc5ncc(Br)cn5)C(C)(C)C)n4)cc3)cc2)c[nH]1 [Compound W-16A],>10 fold
6,CN(C(=O)C1CCC(F)(F)CC1)[C@H](c1ncc(-c2ccc(-c3ccc(-c4cnc([C@@H](N(C)C(=O)C5CCC(F)(F)CC5)C(C)(C)C)[nH]4)cc3)cc2)[nH]1)C(C)(C)C [Compound B-206],<10 fold
7,C=C1C[C@@H](C(=O)N[C@H](c2nc(-c3ccc(-c4ccc(-c5c[nH]c([C@@H](NC(=O)[C@@H]6CC(=C)CN6C(=O)OC(C)(C)C)C(C)(C)C)n5)cc4)cc3)c[nH]2)C(C)(C)C)N(C(=O)OC(C)(C)C)C1 [Compound W-91],>100 fold
8,COC1(C(=O)N[C@H](c2nc(-c3ccc(-c4ccc(-c5c[nH]c([C@@H](NC(=O)C6(OC)CCC6)C(C)(C)C)n5)cc4)cc3)c[nH]2)C(C)(C)C)CCC1 [Compound P-21],>100 fold
9,CC(C)[C@H](NC(=O)C1CCCC1)c1ncc(-c2ccc(-c3ccc(-c4cnc([C@@H](NC(=O)C5CCCC5)C(C)C)[nH]4)cc3)cc2)[nH]1 [Compound S-23],>100 fold
10,CC(C)(C)[C@H](Nc1nc(Cl)c(Cl)s1)c1nc(-c2ccc(-c3ccc(-c4c[nH]c([C@@H](Nc5nc(Cl)c(Cl)s5)C(C)(C)C)n4)cc3)cc2)c[nH]1 [Compound W-179],>10 fold
11,COC(C)(C)C(=O)N[C@H](c1nc(-c2ccc(-c3ccc(-c4c[nH]c([C@@H](NC(=O)C(C)(C)OC)C(C)(C)C)n4)c(C)c3)cc2)c[nH]1)C(C)(C)C.O=C(O)C(F)(F)F [Compound N-85],>100 fold
12,CC1CN(C(C)(C)C(=O)N2CCC(C)(C)C2c2nc(-c3ccc(-c4ccc(-c5c[nH]c(C6N(C(=O)C(C)(C)N7CC(C)OC(C)C7)CCC6(C)C)n5)cc4)cc3)c[nH]2)CC(C)O1 (stereo not shown) [Compound W-228],<10 fold
13,CC(C)(C)[C@H](NC(=O)C(C)(C)C1(O)CCC(F)(F)CC1)c1ncc(C#Cc2ccc3cc(-c4cnc([C@@H](NC(=O)C(C)(C)C5(O)CCC(F)(F)CC5)C(C)(C)C)[nH]4)ccc3c2)[nH]1 [Compound B5A],>100 fold
14,O=C(c1cc2ccccc2o1)N1CCC[C@H]1c1ncc(-c2ccc(-c3ccc(-c4cnc([C@@H]5CCCN5C(=O)c5cc6ccccc6o5)[nH]4)cc3)cc2)[nH]1 [Compound S-122],>10 fold
15,CC1(C)CCN(C(=O)C(=O)N2CCC(F)(F)CC2)C1c1nc(-c2ccc(-c3ccc(-c4c[nH]c(C5N(C(=O)C(=O)N6CCC(F)(F)CC6)CCC5(C)C)n4)cc3)cc2)c[nH]1 (stereo not shown) [Compound W-218],>10 fold
16,CC(C)(C)[C@H](NC(=O)[C@@]1(C)CCC(F)(F)CO1)c1ncc(-c2ccc([C@H]3C[C@@H]3c3ccc(-c4cnc([C@@H](NC(=O)[C@@]5(C)CCC(F)(F)CO5)C(C)(C)C)[nH]4)cc3)cc2)[nH]1 [Compound B-187],>100 fold
